Reference: paper PMC5581743, “Synthesis, characterization, anti-ulcer action and molecular docking evaluation of novel benzimidazole-pyrazole hybrids” (Chemistry Central Journal, 2017)

Tested on: ethanol-induced gastric ulcers in rats
Experiment: ethanol-induced gastric ulcer model in rats (anti-ulcerogenic activity)
Assay type: in vivo, Albino rats
Parameters: key to Ulcer index: sum of lesion lengths (mm) per stomach
Conditions: for Ulcer index: mean ± SEM, n = 5; for % Inhibition: versus saline group
Method: Albino rats (weighing 180-220 g) were housed at the animal house of the […] Institute of Pharmaceutical Sciences under controlled environment (23-25 °C). Animals were kept in plastic cages with sawdust (changed at every 48 h) and were fasted for 24 h before starting the experiment. Animals were provided with tap water ad libitum and standard pellet diet. Experiments performed complied with rules of Institute of Laboratory Animal Resources, Commission on Life Sciences University, National Research Council (1996) and were approved by Ethical Committee of […] Institute of Pharmaceutical Sciences, […] International University. Albino rats (180-220 g) of either sex were divided into different groups (n = 5). Animals were fasted for 24 h before the study, but had free access to water. Animals in the control group received only normal saline (10 mL/kg). Compound 5a at doses of 100 and 500 μg/kg, (p. o.) was given to the animals in the treatment group. Same procedure was repeated for Compund 5b, 5c, 5d, 5e and 5f. Omeprazole (30 mg/kg) was used as a standard. The rats were sacrificed 1 h later and the stomach removed and observed for ulcers in the glandular region. The surface area of each lesion was measured and scored by method with described by Tan et al. with some modifications. The ulcer index for each rat was taken as the mean ulcer score (0: no ulcer; 1: US ≤ 0.5 mm^2; 2: 0.5 < US ≤ 2.5 mm^2; 3: 2.5 mm^2 < US ≤ 5 mm^2; 4: 5 mm^2 < US ≤ 10 mm^2; 5: 10 mm^2 < US ≤ 15 mm^2; 6: 15 mm^2 < US ≤ 20 mm^2; 7: 20 mm^2 < US ≤ 25 mm^2; 8: 25 mm^2 < US ≤ 30 mm^2; 9: 30 mm^2 < US ≤ 35 mm^2; 10: US > 35 mm^2). The sum of the length (mm) of all the lesions for each stomach was used as the ulcer index (UI). The percentage of inhibition (% I) was calculated using the following formula: %I=USc-USt×100/USc where USc = ulcer surface area of control and USt = ulcer surface area of test animal. The anti-ulcer activity of all the benzimidazole-pyrazole hybrids 5a-f was tested in vivo by ethanol-induced gastric ulcer model in rats. Rats received test compounds in two different doses; 100 and 500 μg/kg orally. Omeprazole (30 mg/kg) was used as a standard. The rats were sacrificed 1 h later and the stomach removed and observed for ulcers in the glandular region. The surface area of each lesion was measured and scored by method. […] Figure 2 show the gastric mucosa of rats. […] The results clearly indicated the greater anti-ulcer potential of our synthesized compounds as compared to omeprazole, the currently used anti-ulcer drug. […] It was observed that substitution pattern of both the aromatic rings attached to pyrazole ring effect the anti-ulcer activity. The highest activity was shown by compound 5d i.e. 83.1% at 500 μg/kg dose. All the compounds were docked against H^+/K^+ ATPase to assess the binding affinities and compared with Omeprazole which is a known mercapto benzimidazole derivative and H^+/K^+ ATPase inhibitor. […] 5d has maximum binding affinity of -9.8 kcal/mole due to maximum number of hydrogen bonding interactions with the target.

[1] = 30 mg/kg + ethanol (1 mL/100 g)
[2] = 100 µg/kg p.o. + ethanol (1 mL/100 g)
[3] = 500 µg/kg p.o. + ethanol (1 mL/100 g)

Structure (SMILES)	Ulcer index [1]	% Inhibition [1] [%]	% Inhibition (30 mg/kg + ethanol (1 mL/100 g), listed as omeprazole) [%]	Ulcer index [2]	% Inhibition [2] [%]	Ulcer index [3]	% Inhibition [3] [%]
COc1ccc2[nH]c([S+]([O-])Cc3ncc(C)c(OC)c3C)nc2c1 (centres unmarked) [Omeprazole, reference compound]	0.84 ± 0.01	83.1	83				
O=C(CSc1nc2ccccc2[nH]1)n1nc(-c2ccccc2)cc1-c1ccccc1O [Compound 5a, 2-(1H-benzimidazol-2-ylsulfanyl)-1-[5-(2-hydroxyphenyl)-3-phenyl-1H-pyrazol-1-yl]ethanone]				3.22 ± 0.009	35.4	1.07 ± 0.008	78.5
COc1ccc(-c2cc(-c3ccccc3)nn2C(=O)CSc2nc3ccccc3[nH]2)cc1O [Compound 5f, 2-(1H-benzimidazol-2-ylsulfanyl)-1-[5-(3-hydroxy-4-methoxyphenyl)-3-phenyl-1H-pyrazol-1-yl]ethanone]				3.75 ± 0.016	24.8	1.39 ± 0.02	72.1
O=C(CSc1nc2ccccc2[nH]1)n1nc(-c2ccccc2)cc1-c1ccccc1 [Compound 5e, 2-(1H-benzimidazol-2-ylsulfanyl)-1-(3,5-diphenyl-1H-pyrazol-1-yl)ethanone]				3.18 ± 0.01	36.2	1.06 ± 0.01	79
O=C(CSc1nc2ccccc2[nH]1)n1nc(-c2ccccc2O)cc1-c1ccccc1O [Compound 5b, 2-(1H-benzimidazol-2-ylsulfanyl)-1-[3,5-bis(2-hydroxyphenyl)-1H-pyrazol-1-yl]ethanone]				3.48 ± 0.008	30.2	1.26 ± 0.009	74.7
COc1ccc(-c2cc(-c3ccccc3O)n(C(=O)CSc3nc4ccccc4[nH]3)n2)cc1O [Compound 5c, 2-(1H-benzimidazol-2-ylsulfanyl)-1-[5-(2-hydroxyphenyl)-3-(3-hydroxy-4-methoxyphenyl) -1H-pyrazol-1-yl]ethanone]				3.52 ± 0.009	29.4	1.48 ± 0.009	70.3
